US20030175216A1, “Oral antimicrobial and anti-odor compositions” (Innoscent LTD., priority 2001, published 2003)

Assays:
[1] = tested on: odor formation in freshly-taken morning saliva; assay: Inhibition of in vitro odor formation by higher alcohols (saliva in decarboxylase medium); format: cell-based; settings: for effect on in vitro odor formation (summary): 10-50 μl of 1% solution
Procedure: A series of test tubes were prepared, each containing 5 ml of decarboxylase medium (0.5% peptone, 0.3% yeast extract, 0.1% dextrose and 0.02% bromocresol purple). […] The tubes were incubated at 37° C. for three days. Following incubation, the odor was determined by a panel of odor judges, using the following semi-quantitative scale 0=no odor 1=very slight odor […] The higher alcohols tested were alkanols of chain length C8, C9, C10, C11, C12, C14, C16 and C18.

E. faecalis = assay: Agar plate zone of growth inhibition; format: cell-based
Procedure: (§1) The higher alcohols were tested for antimicrobial activity against Gram positive bacteria (Streptococcus mutans), Gram negative bacteria (Pseudomonas spp., Escherichia coli, […]) and the yeast Candida albicans. […] Five microliters of the higher alcohol solutions were placed on the surface of a rich (Brain-heart infusion) agar plate immediately after seeding with a mono-specific bacterial or yeast culture. The plates were incubated for 24-48 hours, and, following further microbial proliferation, the diameters of the zones of growth inhibition were measured (results expressed in centimeters).

Pseudomonas aeruginosa = assay: Agar plate zone of growth inhibition; format: cell-based
Procedure: as §1

C. albicans = assay: Agar plate zone of growth inhibition; format: cell-based, Candida albicans
Procedure: as §1

E. coli = assay: Agar plate zone of growth inhibition; format: cell-based, Escherichia coli; settings: for inhibition of E. coli (summary): 1% in 100% ethanol
Procedure: as §1

[2] = tested on: bacteria and yeast tested; assay: Agar plate growth inhibition, summary statements over the test microorganisms; format: cell-based; settings: Table VI microorganisms
Procedure: as §1, with “centimeters). In a further set of experiments, the effect of solvent type on the antimicrobial activity of the C9 alcohol was investigated. […] These solutions were tested for antimicrobial activity towards three microorganisms (M. lysodeikticus, S. mutans and Corynebacterium xerosis) using the same assay as described above. The relationship of the concentration of the C9 alcohol to its antimicrobial activity was also investigated. […] These solutions were tested in the assay described above for their ability to inhibit the growth of the bacteria M. lysodeikticus and S. mutans.” for “centimeters).”

S. mutans = assay: Agar plate zone of growth inhibition; format: cell-based, Streptococcus mutans; settings: for inhibition of S. mutans (summary): 1% in 100% ethanol
Procedure: as §1, with “centimeters). In a further set of experiments, the effect of solvent type on the antimicrobial activity of the C9 alcohol was investigated. […] These solutions were tested for antimicrobial activity towards three microorganisms (M. lysodeikticus, S. mutans and Corynebacterium xerosis) using the same assay as described above. The relationship of the concentration of the C9 alcohol to its antimicrobial activity was also investigated. […] These solutions were tested in the assay described above for their ability to inhibit the growth of the bacteria M. lysodeikticus and S. mutans.” for “centimeters).”

[3] = 10 μl of 1% solution, scale 0-5
[4] = 20 μl of 1% solution, scale 0-5
[5] = 30 μl of 1% solution, scale 0-5
[6] = 40 μl of 1% solution, scale 0-5
[7] = 50 μl of 1% solution (C8-C12 in 70% ethanol, C14-C18 in 100% ethanol) in 5 ml medium + 200 μl saliva, 3 days 37° C., scale 0 no odor to 5 extremely foul
[8] = 50 μl of 1% solution, scale 0-5
[9] = 5 μl of 1% solution (C8-C12 in 70% ethanol, C14-C18 in 100% ethanol)
[10] = 5 μl of 0.1% solution in 70% ethanol
[11] = 70% ethanol alone, 100 μl, scale 0-5
[12] = 70% ethanol alone, 200 μl, scale 0-5

For `CCCCCCCCCCCCO` [C12], the “Odor Score (Judge 1)” value [1, 3] was 5, the “Odor Score (Judge 2)” value [1, 3] was 5 and the “Odor Score (Judge 1)” value [1, 4] was 4. For the same molecule, the “Odor Score (Judge 2)” value [1, 4] was 4, the “Odor Score (Judge 1)” value [1, 5] was 3 and the “Odor Score (Judge 2)” value [1, 5] was 3. For the same molecule, the “Odor Score (Judge 1)” value [1, 6] was 2, the “Odor Score (Judge 2)” value [1, 6] was 3 and the “Odor Score (Judge 1)” value [1, 7] was 2. For the same molecule, the “Odor Score (Judge 2)” value [1, 8] was 3.5, the “diameter of zone of growth inhibition, E. faecalis” value (E. faecalis; [9]) was 0.7 centimeters and the “diameter of zone of growth inhibition, Pseudomonas aeruginosa” value (Pseudomonas aeruginosa; [10]) was “+ −”. For the same molecule, the “diameter of zone of growth inhibition, Pseudomonas aeruginosa” value (Pseudomonas aeruginosa; [9]) was “+ −”, the “diameter of zone of growth inhibition, C. albicans” value (C. albicans; [10]) was 0.6 centimeters and the “diameter of zone of growth inhibition, E. coli” value (E. coli; [10]) was 0.6 centimeters. For the same molecule, the “effect on microbial growth (summary)” value [2] was “inhibit microbial growth”.
`CCCCCCCCCCCO` [C11, 1-undecanol] was tested, and the “effect on in vitro odor formation (summary)” value [1] was “inhibition of odor formation”, the “Odor Score (Judge 1)” value [1, 3] was 5 and the “Odor Score (Judge 2)” value [1, 3] was 5. For the same molecule, the “Odor Score (Judge 1)” value [1, 4] was 0, the “Odor Score (Judge 2)” value [1, 4] was 0.5 and the “Odor Score (Judge 1)” value [1, 5] was 0. The “Odor Score (Judge 2)” value [1, 5] was 0, the “Odor Score (Judge 1)” value [1, 6] was 0 and the “Odor Score (Judge 2)” value [1, 6] was 0. The “Odor Score (Judge 1)” value [1, 7] was 0, the “Odor Score (Judge 2)” value [1, 8] was 0 and the “diameter of zone of growth inhibition, E. faecalis” value (E. faecalis; [10]) was 1.0 centimeters. The “diameter of zone of growth inhibition, Pseudomonas aeruginosa” value (Pseudomonas aeruginosa; [10]) was 0.4 centimeters, the “diameter of zone of growth inhibition, Pseudomonas aeruginosa” value (Pseudomonas aeruginosa; [9]) was 0.7 centimeters and the “diameter of zone of growth inhibition, C. albicans” value (C. albicans; [10]) was 0.7 centimeters. The “diameter of zone of growth inhibition, C. albicans” value (C. albicans; [9]) was 0.8 centimeters, the “diameter of zone of growth inhibition, E. coli” value (E. coli; [10]) was 0.7 centimeters and the “diameter of zone of growth inhibition, E. coli” value (E. coli; [9]) was 0.7 centimeters. The “effect on microbial growth (summary)” value [2] was “inhibit microbial growth”.
`N=C(NCCCCCCNC(=N)NC(=N)Nc1ccc(Cl)cc1)NC(=N)Nc1ccc(Cl)cc1.O=C(O)[C@H](O)[C@@H](O)[C@H](O)[C@H](O)CO.O=C(O)[C@H](O)[C@@H](O)[C@H](O)[C@H](O)CO` [CHX, chlorhexidine digluconate, reference compound] was tested, and the “Odor Score (Judge 1)” value ([1]; 5 μl of 1% solution, scale 0-5) was 4, the “Odor Score (Judge 2)” value ([1]; 5 μl of 1% solution, scale 0-5) was 4.5 and the “Odor Score (Judge 1)” value [1, 3] was 2. The “Odor Score (Judge 2)” value [1, 3] was 1, the “Odor Score (Judge 1)” value [1, 4] was 0 and the “Odor Score (Judge 2)” value [1, 4] was 0. For the same molecule, the “Odor Score (Judge 1)” value [1, 5] was 0, the “Odor Score (Judge 2)” value [1, 5] was 0 and the “Odor Score (Judge 1)” value [1, 6] was 0. The “Odor Score (Judge 2)” value [1, 6] was 0.
`CCCCCCCCCCCCCCCCO` [C16] was tested, and the “Odor Score (Judge 1)” value [1, 3] was 5, the “Odor Score (Judge 2)” value [1, 3] was 5 and the “Odor Score (Judge 1)” value [1, 4] was 5. The “Odor Score (Judge 2)” value [1, 4] was 5, the “Odor Score (Judge 1)” value [1, 5] was 5 and the “Odor Score (Judge 2)” value [1, 5] was 5. The “Odor Score (Judge 1)” value [1, 6] was 5, the “Odor Score (Judge 2)” value [1, 6] was 5 and the “Odor Score (Judge 1)” value [1, 7] was 4. For the same molecule, the “Odor Score (Judge 2)” value [1, 8] was 4, the “inhibition of E. coli (summary)” value (E. coli) was “moderate inhibition” and the “diameter of zone of growth inhibition, E. coli” value (E. coli; [9]) was 0.7 centimeters. The “inhibition of S. mutans (summary)” value (S. mutans) was “not of S. mutans” and the “diameter of zone of growth inhibition, S. mutans” value (S. mutans; [9]) was “+ −”.
In the case of `CCCCCCCCO` [C8], the “Odor Score (Judge 1)” value [1, 3] was 4, the “Odor Score (Judge 2)” value [1, 3] was 3 and the “Odor Score (Judge 1)” value [1, 4] was 3. For the same molecule, the “Odor Score (Judge 2)” value [1, 4] was 3, the “Odor Score (Judge 1)” value [1, 5] was 3 and the “Odor Score (Judge 2)” value [1, 5] was 3. For the same molecule, the “Odor Score (Judge 1)” value [1, 6] was 4, the “Odor Score (Judge 2)” value [1, 6] was 3 and the “Odor Score (Judge 1)” value [1, 7] was 4. The “Odor Score (Judge 2)” value [1, 8] was 4, the “diameter of zone of growth inhibition, E. faecalis” value (E. faecalis; [9]) was “+ −” and the “diameter of zone of growth inhibition, Pseudomonas aeruginosa” value (Pseudomonas aeruginosa; [9]) was 0.5 centimeters. The “inhibition of the yeast C. albicans (summary)” value (C. albicans; opaque inhibition zone on the agar plate) was “only partial inhibition”.
With `CCCCCCCCCCCCCCO` [C14] the “Odor Score (Judge 1)” value [1, 3] was 5, the “Odor Score (Judge 2)” value [1, 3] was 5 and the “Odor Score (Judge 1)” value [1, 4] was 5. For the same molecule, the “Odor Score (Judge 2)” value [1, 4] was 5, the “Odor Score (Judge 1)” value [1, 5] was 5 and the “Odor Score (Judge 2)” value [1, 5] was 5. The “Odor Score (Judge 1)” value [1, 6] was 5, the “Odor Score (Judge 2)” value [1, 6] was 5 and the “Odor Score (Judge 1)” value [1, 7] was 4. The “Odor Score (Judge 2)” value [1, 8] was 4, the “diameter of zone of growth inhibition, E. coli” value (E. coli; [9]) was 0.9 centimeters and the “diameter of zone of growth inhibition, S. mutans” value (S. mutans; [9]) was 1.0 centimeters. The “effect on microbial growth (summary)” value [2] was “inhibit microbial growth”.
With `CCCCCCCCCCCCCCCC[n+]1ccccc1` [CPC, cetylpyridinium chloride, reference compound] the “Odor Score (Judge 1)” value ([1]; 5 μl of 1% solution, scale 0-5) was 4, the “Odor Score (Judge 2)” value ([1]; 5 μl of 1% solution, scale 0-5) was 4 and the “Odor Score (Judge 1)” value [1, 3] was 2. For the same molecule, the “Odor Score (Judge 2)” value [1, 3] was 2.5, the “Odor Score (Judge 1)” value [1, 4] was 0 and the “Odor Score (Judge 2)” value [1, 4] was 0.
In the case of `CCCCCCCCCCO` [C10, 1-decanol], the “effect on in vitro odor formation (summary)” value [1] was “inhibition of odor formation”, the “Odor Score (Judge 1)” value [1, 3] was 4 and the “Odor Score (Judge 2)” value [1, 3] was 4. The “Odor Score (Judge 1)” value [1, 4] was 0, the “Odor Score (Judge 2)” value [1, 4] was 0 and the “Odor Score (Judge 1)” value [1, 5] was 0. The “Odor Score (Judge 2)” value [1, 5] was 0, the “Odor Score (Judge 1)” value [1, 6] was 0 and the “Odor Score (Judge 2)” value [1, 6] was 0. For the same molecule, the “Odor Score (Judge 1)” value [1, 7] was 0, the “Odor Score (Judge 2)” value [1, 8] was 0 and the “diameter of zone of growth inhibition, E. faecalis” value (E. faecalis; [10]) was 0.9 centimeters. For the same molecule, the “diameter of zone of growth inhibition, Pseudomonas aeruginosa” value (Pseudomonas aeruginosa; [10]) was 0.8 centimeters, the “diameter of zone of growth inhibition, Pseudomonas aeruginosa” value (Pseudomonas aeruginosa; [9]) was 0.8 centimeters and the “diameter of zone of growth inhibition, C. albicans” value (C. albicans; [10]) was 0.7 centimeters. The “diameter of zone of growth inhibition, C. albicans” value (C. albicans; [9]) was 0.8 centimeters, the “diameter of zone of growth inhibition, E. coli” value (E. coli; [10]) was 0.8 centimeters and the “diameter of zone of growth inhibition, E. coli” value (E. coli; [9]) was 0.7 centimeters. For the same molecule, the “effect on microbial growth (summary)” value [2] was “inhibit microbial growth”.
With `CCCCCCCCCCCCCCCCCCO` [C18] the “Odor Score (Judge 1)” value [1, 3] was 5, the “Odor Score (Judge 2)” value [1, 3] was 5 and the “Odor Score (Judge 1)” value [1, 4] was 5. For the same molecule, the “Odor Score (Judge 2)” value [1, 4] was 5, the “Odor Score (Judge 1)” value [1, 5] was 5 and the “Odor Score (Judge 2)” value [1, 5] was 5. For the same molecule, the “Odor Score (Judge 1)” value [1, 6] was 4, the “Odor Score (Judge 2)” value [1, 6] was 4 and the “Odor Score (Judge 1)” value [1, 7] was 3.5. For the same molecule, the “Odor Score (Judge 2)” value [1, 8] was 4, the “inhibition of E. coli (summary)” value (E. coli) was “moderate inhibition” and the “diameter of zone of growth inhibition, E. coli” value (E. coli; [9]) was 0.8 centimeters. The “inhibition of S. mutans (summary)” value (S. mutans) was “not of S. mutans” and the “diameter of zone of growth inhibition, S. mutans” value (S. mutans; [9]) was “+ −”.
In the case of `CCO` [Ethanol, ethanol, reference compound], the “Odor Score (Judge 1)” value [1, 11] was 5, the “Odor Score (Judge 2)” value [1, 11] was 4.5 and the “Odor Score (Judge 1)” value [1, 12] was 4. The “Odor Score (Judge 2)” value [1, 12] was 4.5, the “diameter of zone of growth inhibition, Pseudomonas aeruginosa” value (Pseudomonas aeruginosa; 5 μl of 70% Ethanol alone) was “+ −” and the “diameter of zone of growth inhibition, E. coli” value (E. coli; 5 μl of 100% Ethanol alone) was 1.0 centimeters. For the same molecule, the “diameter of zone of growth inhibition, S. mutans” value (S. mutans; 5 μl of 100% Ethanol alone) was “+ −”.
